The values that follow come from patent US20170112878A1, “PROGRAMMABLE UNIVERSAL CELL RECEPTORS AND METHOD OF USING THE SAME” (Sorrento Therapeutics, Inc., priority 2015, published 2017).

For the experiment, the system named is PUCR comprising 38C2 scFab expressed on the membrane of the NKL cells. Kind of experiment: Programming of PUCR on NKL cells with AZD-PEG8-biotin, detected with DTAF-conjugated streptavidin by FACS. The experiment is classed as cell-based. Conditions: 1 μM or 10 μM, 4° C., 1 hour, PUCR-expressing vs wild-type NKL cells. From the text:
To generate constructs encoding a PUCR comprising humanized 38C2 scFab, a nucleic acid encoding the humanized 38C2 scFab was designed by fusing a nucleic acid encoding humanized 38C2 […] LC domain, a nucleic acid encoding a poly-GlySer linker, a nucleic acid encoding the humanized 38C2 VH domain, and a nucleic acid encoding the human gamma 1 HC constant domain 1. The resulting nucleic acid fragment was cloned into a retroviral vector to encode a PUCR comprising an N-terminal leader peptide, followed by the 38C2 scFab, followed by a hybrid CD8 and CD28 hinge, a CD28 transmembrane domain, a CD28 intracellular domain, and a CD3ζ intracellular domain. The nucleic acid and amino acid sequences of the PUCR are shown below. NKL cells were transduced with the viral vector encoding the PUCR.
The PUCR comprising 38C2 scFab expressed on the membrane of the NKL cells was conjugated (i.e., programmed) with the specificity agent AZD-PEG8-biotin (see FIG. 11). […] AZD-PEG8-biotin comprises the reactivity moiety azetidinone which reacts with and forms a stable covalent bond with the reactive lysine of the 38C2 scFab within the PUCR. […] Fluorescence was measured using a ACEA Biosciences NovoCyte flow cytometer. Data was analyzed with FlowJo software, and DTAF-conjugated streptavidin binding was quantified by increased mean fluorescence intensity. […]
(A flow cytometer gives signals particle by particle.)

Regarding `O=C(CCCC[C@@H]1SC[C@@H]2NC(=O)N[C@@H]21)NCCOCCOCCOCCOCCOCCOCCNC(=O)CCOCCOCCC(=O)Nc1ccc(CCC(=O)N2CCC2=O)cc1` [AZD-PEG8-Biotin, 5-[(3aS,4S,6aR)-2-oxo-1,3,3a,4,6,6a-hexahydrothieno[3,4-d]imidazol-4-yl]-N-[2-[2-[2-[2-[2-[2-[2-[3-[2-[3-oxo-3-[4-[3-oxo-3-(2-oxoazetidin-1-yl)propyl]anilino]propoxy]ethoxy]propanoylamino]ethoxy]ethoxy]ethoxy]ethoxy]ethoxy]ethoxy]ethyl]pentanamide], the “conjugation (programming) of PUCR, DTAF-conjugated streptavidin binding” value is recorded as “successfully programmed”.
